# Source: patent publication US20100136118A1, “CALCIUM ABSORPTION ENHANCER” (priority 2007, published 2010)
# Entries after “also recorded” stand apart in the source; their conditions may differ.
# Key:
# Assay type in all cases: physicochemical
# Settings in all cases: organic acid calcium from egg shell mixture (A)
# [1] = sustained release property in simulated intestines (column, distilled water)
# Protocol: (§1) The amount of an eluted solvent (mL) and changes in the amount of calcium ions (integrated value) with elution of distilled water were measured, and the amount of an eluted solvent (mL) and changes in the amount of each organic acid (integrated value) with elution of distilled water were measured. Among the obtained results, the measurement results regarding the amount of calcium ions (integrated value) are shown in FIG. 11.
# (§2) Furthermore, as a solvent, distilled water was used instead of 0.1 N aqueous HCl solution to simulate a state in which gastric acid was neutralized when a drink or a food was transported from the stomach to the duodenum. Except for this condition, the amount of solvent (mL) eluted in the simulated gastric cavity and changes in the amount of calcium ions (integrated value) with elution of the solvent were evaluated in the same manner as in Example 8.
# Using distilled water as a solvent, the amount of solvent (mL) eluted in the simulated gastric cavity and changes in the amount of calcium ions (integrated value) with elution of the solvent were evaluated. […]
# Using distilled water as a solvent, the amount of solvent (mL) eluted in the simulated intestine and changes in the amount of calcium ions (integrated value) with elution of the solvent were evaluated. […]
# [2] = sustained release property in simulated gastric cavity (column, 0.1 N aqueous HCl solution)
# Protocol: Subsequently, 0.1 N aqueous HCl solution simulating a gastric juice as a solvent was passed through this column and separated by a low-pressure chromatography system (Bio-Rad Laboratories, Inc., BioLogic LP Chromatography System) over time. The flow rate of the solvent during the separation was 1.0 mL/min. Then, the calcium ion concentration in each separated solution was measured using Calcium C-test Wako (Wako Pure Chemical Industries, Ltd., Cat. No. 272-21801). The concentration of the organic acid in each separated solution (lactic acid, acetic acid, and citric acid) was measured using F-Kit Lactic Acid, F-Kit Acetic Acid, and F-Kit Citric Acid (Roche Diagnostics K.K., Cat. Nos. 1112821, 148261, and 139076).
# The amount of an eluted solvent (mL) and changes in the amount of calcium ions (integrated value) with elution of 0.1 N HCl were measured, and the amount of an eluted solvent (mL) and changes in the amount of each organic acid (integrated value) with elution of 0.1 N HCl were measured.
# Using 0.1 N aqueous HCl solution as a solvent, the amount of solvent (mL) eluted in the simulated gastric cavity and changes in the amount of calcium ions (integrated value) with elution of the solvent were evaluated. […]
# [3] = sustained release property in simulated gastric cavity (column, 0.05 N aqueous HCl solution, diluted gastric juice)
# Protocol: as §1, with “0.05 N HCl” for “distilled water”, “9.” for “11.”
# as §2, with “0.05 N aqueous HCl solution” for “distilled water”, “juice in an organism” for “acid”, “diluted with drinking water.” for “neutralized when a drink or a food was transported from the stomach to the duodenum.”
# (§3) Using 0.05 N aqueous HCl solution as a solvent, the amount of solvent (mL) eluted in the simulated gastric cavity and changes in the amount of calcium ions (integrated value) with elution of the solvent were evaluated. […]
# as §3
structure (smiles),measurement,setting,value
O=C([O-])CC(O)(CC(=O)[O-])C(=O)[O-].O=C([O-])CC(O)(CC(=O)[O-])C(=O)[O-].[Ca+2].[Ca+2].[Ca+2] [calcium citrate],amount of each organic acid (integrated value) vs amount of eluted solvent,[1],gradually dissolved
same,amount of each organic acid (integrated value) vs amount of eluted solvent,[2],started gradually after the start of elution
same,amount of each organic acid (integrated value) vs amount of eluted solvent,[3],gradually dissolved; also recorded: dissolved in virtually the same amount
CC(O)C(=O)[O-].CC(O)C(=O)[O-].[Ca+2] (stereo not drawn) [calcium lactate],amount of each organic acid (integrated value) vs amount of eluted solvent,[1],dissolved first at the stage of the start of measurement
same,amount of each organic acid (integrated value) vs amount of eluted solvent,[2],dissolved first at the stage of the start of measurement
same,amount of each organic acid (integrated value) vs amount of eluted solvent,[3],dissolved first
